# Patent publication US20250230173A1, “SALT FORMS OF AN AXL INHIBITOR” (Arcus Biosciences, Inc., priority 2023, published 2025)
# Assays:
# Assay type in all cases: physicochemical
# [1] = Stability study of selected solid forms, HPLC purity after 7 days of storage
# [2] = Stability study of selected solid forms, XRPD after 7 days of storage
# From the text: XRPD diffractograms were collected with a Bruker, D2 Phaser or Panalytical Empyrean X-ray diffractometer. Diffractograms can be read by one of skill in the art, for example, to determine if a chemical sample is the substantially the same, different, or represents a mixture of forms. When a diffractogram is “substantially in accordance” as another diffractogram, a person of skill in the art would regard the samples resulting in the two diffractograms as the same form or same mixture of forms, taking into account minor variations for instrumentation, conditions, and the like.
# A stability study comparing amorphous freebase Compound I, Freebase Form II, 2-Napsylate Form I, Fumarate Form I, Succinate Form I, and Camsylate Form I was conducted. HPLC measurements were taken after 7 days of storage at the indicated conditions.
# [3] = Competitive slurry of 2-Napsylate Form I and Form VI at different water activities
# Procedure: To determine the impact of water activity on 2-Napsylate Form VI and 2-Napsylate Form I, a series of competitive slurry experiments were carried out at different water activities in THF/water and ACN/water solvent systems at RT and 55° C. Suspensions of 2-Napsylate Form I at each condition were made and allowed to equilibrate for 2 h followed by addition of ˜5 mg of Form VI with stirring.
compound,measurement,setting,value
Cc1cccnc1-c1ccc(-c2n[nH]c3ncc(-c4ccc5c(c4)CC[C@@H](N4C6COCC4C6)CC5)cc23)nc1 [Camsylate Form I],HPLC Purity (A %),"[1]; 7 days, 2° C.",99.69 A %
same,HPLC Purity (A %),"[1]; 7 days, 25° C.",99.68 A %
same,HPLC Purity (A %),"[1]; 7 days, 40° C. / 75% RH",99.29 A %
same,HPLC Purity (A %),[1]; T0,99.69 A %
same,XRPD (solid form),"[2]; 7 days, 2° C.",Form I
same,XRPD (solid form),"[2]; 7 days, 25° C.",Form I
same,XRPD (solid form),"[2]; 7 days, 40° C. / 75% RH",Decreased
same,XRPD (solid form),[2]; T0,Form I
Cc1cccnc1-c1ccc(-c2n[nH]c3ncc(-c4ccc5c(c4)CC[C@@H](N4C6COCC4C6)CC5)cc23)nc1 [Freebase Form II],HPLC Purity (A %),"[1]; 7 days, 25° C.",99.44 A %
same,HPLC Purity (A %),"[1]; 7 days, 40° C. / 75% RH",99.36 A %
same,HPLC Purity (A %),"[1]; 7 days, 60° C.",99.22 A %
same,Chemical and physical stability compared to the other forms tested,[1]; Example 6 stability study,better chemical and physical stability
same,HPLC Purity (A %),[1]; T0,100.0 A %
same,XRPD (solid form),"[2]; 7 days, 25° C.",Form II
same,XRPD (solid form),"[2]; 7 days, 40° C. / 75% RH",Form II
same,XRPD (solid form),"[2]; 7 days, 60° C.",Form I
same,XRPD (solid form),[2]; T0,Form II
Cc1cccnc1-c1ccc(-c2n[nH]c3ncc(-c4ccc5c(c4)CC[C@@H](N4C6COCC4C6)CC5)cc23)nc1,2-Napsyalte Crystal Form,"[3]; 55° C., H2O, 1 w",Gel Formation
same,2-Napsyalte Crystal Form,"[3]; 55° C., H2O, 2 d",Gel Formation
same,2-Napsyalte Crystal Form,"[3]; 55° C., THF, 1 w",Form I (majorly)
same,2-Napsyalte Crystal Form,"[3]; 55° C., THF, 2 d",Form VI (majorly)
same,2-Napsyalte Crystal Form,"[3]; 55° C., THF/H2O (aw = 0.2), 1 w",Form I
same,2-Napsyalte Crystal Form,"[3]; 55° C., THF/H2O (aw = 0.2), 2 d",Form I (majorly)
same,2-Napsyalte Crystal Form,"[3]; 55° C., THF/H2O (aw = 0.4), 1 w",Gel Formation
same,2-Napsyalte Crystal Form,"[3]; 55° C., THF/H2O (aw = 0.4), 2 d",Gel Formation
same,2-Napsyalte Crystal Form,"[3]; 55° C., THF/H2O (aw = 0.6), 1 w",Gel Formation
same,2-Napsyalte Crystal Form,"[3]; 55° C., THF/H2O (aw = 0.6), 2 d",Gel Formation
same,2-Napsyalte Crystal Form,"[3]; 55° C., THF/H2O (aw = 0.8), 1 w",Gel Formation
same,2-Napsyalte Crystal Form,"[3]; 55° C., THF/H2O (aw = 0.8), 2 d",Gel Formation
same,2-Napsylate Crystal Form,"[3]; RT, ACN, 1 d",Form I
same,2-Napsylate Crystal Form,"[3]; RT, ACN/H2O (aw = 0.2), 1 d",Form I
same,2-Napsylate Crystal Form,"[3]; RT, ACN/H2O (aw = 0.4), 1 d",Form I
same,2-Napsylate Crystal Form,"[3]; RT, ACN/H2O (aw = 0.6), 1 d",Form I
same,2-Napsylate Crystal Form,"[3]; RT, ACN/H2O (aw = 0.8), 1 d",Gel Formation
same,2-Napsyalte Crystal Form,"[3]; RT, H2O, 1 w",Form IX
same,2-Napsylate Crystal Form,"[3]; RT, H2O, 1 d (ACN series)",Form I
same,2-Napsyalte Crystal Form,"[3]; RT, H2O, 2 d",Form I
same,2-Napsyalte Crystal Form,"[3]; RT, THF, 1 w",Form I (majorly)
same,2-Napsyalte Crystal Form,"[3]; RT, THF, 2 d",Form VI (majorly)
same,2-Napsyalte Crystal Form,"[3]; RT, THF/H2O (aw = 0.2), 1 w",Form I (majorly)
same,2-Napsyalte Crystal Form,"[3]; RT, THF/H2O (aw = 0.2), 2 d",Form I (majorly)
same,2-Napsyalte Crystal Form,"[3]; RT, THF/H2O (aw = 0.4), 1 w",Gel Formation
same,2-Napsyalte Crystal Form,"[3]; RT, THF/H2O (aw = 0.4), 2 d",Gel Formation
same,2-Napsyalte Crystal Form,"[3]; RT, THF/H2O (aw = 0.6), 1 w",Gel Formation
same,2-Napsyalte Crystal Form,"[3]; RT, THF/H2O (aw = 0.6), 2 d",Gel Formation
same,2-Napsyalte Crystal Form,"[3]; RT, THF/H2O (aw = 0.8), 1 w",Gel Formation
same,2-Napsyalte Crystal Form,"[3]; RT, THF/H2O (aw = 0.8), 2 d",Gel Formation
Cc1cccnc1-c1ccc(-c2n[nH]c3ncc(-c4ccc5c(c4)CC[C@@H](N4C6COCC4C6)CC5)cc23)nc1 [Succinate Form I],HPLC Purity (A %),"[1]; 7 days, 2° C.",97.74 A %
same,HPLC Purity (A %),"[1]; 7 days, 25° C.",98.22 A %
same,HPLC Purity (A %),"[1]; 7 days, 40° C. / 75% RH",89.76 A %
same,HPLC Purity (A %),[1]; T0,98.09 A %
same,XRPD (solid form),"[2]; 7 days, 2° C.",Form I
same,XRPD (solid form),"[2]; 7 days, 25° C.",Form I
same,XRPD (solid form),"[2]; 7 days, 40° C. / 75% RH",Form I
same,XRPD (solid form),[2]; T0,Form I
Cc1cccnc1-c1ccc(-c2n[nH]c3ncc(-c4ccc5c(c4)CC[C@@H](N4C6COCC4C6)CC5)cc23)nc1 [Fumarate Form I],HPLC Purity (A %),"[1]; 7 days, 2° C.",98.01 A %
same,HPLC Purity (A %),"[1]; 7 days, 25° C.",97.94 A %
same,HPLC Purity (A %),"[1]; 7 days, 40° C. / 75% RH",95.29 A %
same,HPLC Purity (A %),[1]; T0,97.84 A %
same,XRPD (solid form),"[2]; 7 days, 2° C.",Form I
same,XRPD (solid form),"[2]; 7 days, 25° C.",Form I
same,XRPD (solid form),"[2]; 7 days, 40° C. / 75% RH",Form I
same,XRPD (solid form),[2]; T0,Form I
